# Experimental data from patent publication US11192865B2, “Benzosulfonyl compounds” (Vivace Therapeutics, Inc., priority 2017, dated 2021).
# System: 8XTBD luciferase reporter
# Experiment: YAP Reporter Assay
# Assay type: cell-based
# Conditions: Homo sapiens, HEK-293T; HEK293T cells stably transfected with 8XTBD luciferase reporter and pRLTK; 24-hr incubation; starting from 3 μM, 1:3 dilution, 10 points; read-out: Firefly Luciferase IC50
# Procedure: HEK293T cells stably transfected with 8XTBD luciferase reporter and pRLTK in 384-well plates were treated with the test compounds, starting from 3 μM (final concentration in assay plate), 1:3 dilution, and 10 points in quadruplicates. Post 24-hr incubation with compounds at 37° C. and 5% CO2, cells were lysed and 8XTBD-driven firefly luciferase and control TK-driven renilla luciferase activities were measured using Promega Dual-Luciferase Reporter Assay System.
# Reagents: The reagents used for this study are: DMEM: Invitrogen #11960077, Dual-Glo Luciferase Assay System: Promega-E2980, Puromycin Dihydrochloride: Invitrogen-A1113803, 384-well plate: PerkinElmer-6007480, L-GLUTAMINE: Invitrogen-25030164, Hygromycin B: Invitrogen-10687010, and Penicillin-Streptomycin: Merk-TMS-AB2-C
# Media: The media used for this assay were: Culture Medium: DMEM+1 ug/mL puromycin+200 ug/mL hygromycin (with 10% FBS+1 mM L-glutamine); and Assay Medium: DMEM (with 10% FBS+1 mM L-glutamine+1×P/S).
# Cell Plating: The appropriate media was warmed at 37° C. by water bath: Culture Medium, Assay Medium, 1* D-PBS, 0.05% trypsin-EDTA. The cells were trypsinized after removing all media, then washed with 1* sterile D-PBS and then with 2 ml 0.05% trypsin-EDTA. The cells were then incubated at RT for one minute. Then 10 ml/75 cm2 flask Assay Medium was added to each flask. Using a 10 ml pipette, the cells were then gently resuspended in the media, until the clumps completely disappeared. The cells were then transferred into 50 ml centrifuge tubes and were centrifuged at 800 rpm for 5 mins. The medium was removed and the cells were resuspended with Assay Medium. An aliquot of cells was used to count the cell density (cells/ml). The cell suspension was then diluted with Assay Medium to a concentration of 6×10^4 cells/ml. 50 ul cells suspension was then plated to 384-well plate (PerkinElmer-6007480), 3×10^3 cells/well and the cells were incubated in an incubator at 37° C., 5% CO2.
# Compound Treatment: In the afternoon (incubation of the plate with 3-4 hrs), the test compounds were added by Echo, starting from 3 uM (final concentration in the assay plate), 1:3 dilution, 10 points, quadruplicates. The plate was placed at 37° C., 5% CO2 incubator for 24 hrs.
# Detection: The Dual-Glo Luciferase Reagent was prepared by transferring the contents of one bottle of Dual-Glo Luciferase Buffer to one bottle of Dual-Glo Luciferase Substrate to create the Dual-Glo Luciferase Reagent. Mixing was performed by inversion until the substrate was thoroughly dissolved. After mixing, the reagent was aliquoted into 15 ml tubes. In the afternoon (24 hrs post compound treatment), the DMEM+ medium in the 384 well plates were aspirated by Microplate Washer.
# Measuring firefly luciferase activity: 20 ul Dual-Glo Luciferase Reagent was added to the 384-well plates. The plates were protected from light to prevent interference with the assay. The plates were shaken for 1 min followed centrifuging plates at 1000 rpm for 30 seconds. After waiting at least 10 minutes, the firefly luminescence was measured by Envision.
# Measuring renilla luciferase activity: 20 ul Stop-Glo Reagent was added to the 384-well plates. The plates were shaken for 1 min and then centrifuged at 1000 rpm for 30 seconds. After waiting at least 10 minutes, the renilla luminescence was measured by Envision.
# Compound IC50 and maximum inhibition on the firefly luciferase and renilla luciferase activities were reported separately.
row,IC50 [nM],SMILES
1,100 to 1000,"CNS(=O)(=O)c1ccc(Nc2cccc(F)c2)c(-c2nnn(C)n2)c1 [Compound 117, 4-((3-fluorophenyl)amino)-N-methyl-3-(2-methyl-2H-tetrazol-5-yl)benzenesulfonamide]"
2,≤ 100,"CNS(=O)(=O)c1ccc(NC2CCCCC2)c(-c2nnn(Cc3ccccc3)n2)c1 [Compound 20, 3-(2-benzyl-2H-tetrazol-5-yl)-4-(cyclohexylamino)-N-methylbenzenesulfonamide]"
3,100 to 1000,"Cn1cc(-c2cc(S(C)(=O)=O)ccc2NC2CCCCC2)nn1 [Compound 6, N-cyclohexyl-2-(1-methyl-1H-1,2,3-triazol-4-yl)-4-(methylsulfonyl)aniline]"
4,> 3000,"CNS(=O)(=O)c1ccc(Nc2ccccc2OC(F)(F)F)c(-c2nnn(C)n2)c1 [Compound 102, N-methyl-3-(2-methyl-2H-tetrazol-5-yl)-4-((2-(trifluoromethoxy)phenyl)amino)benzenesulfonamide]"
5,100 to 1000,"CNS(=O)(=O)c1ccc(Nc2cccc(F)c2F)c(-c2nnn(C)n2)c1 [Compound 104, 4-((2,3-difluorophenyl)amino)-N-methyl-3-(2-methyl-2H-tetrazol-5-yl)benzenesulfonamide]"
6,≤ 100,"CNS(=O)(=O)c1ccc(NC2CCCCC2)c(-c2ncccn2)c1 [Compound 56, 4-(cyclohexylamino)-N-methyl-3-(pyrimidin-2-yl)benzenesulfonamide]"
7,≤ 100,"CNS(=O)(=O)c1ccc(NC2CCC(F)(F)CC2)c(-c2nnn(C)n2)c1 [Compound 72, 4-((4,4-difluorocyclohexyl)amino)-N-methyl-3-(2-methyl-2H-tetrazol-5-yl)benzenesulfonamide]"
8,≤ 100,"CNS(=O)(=O)c1ccc(NC2CCCCC2)c(-c2nnn(C3CCC3)n2)c1 [Compound 17, 3-(2-cyclobutyl-2H-tetrazol-5-yl)-4-(cyclohexylamino)-N-methylbenzene sulfonamide]"
9,100 to 1000,"CNS(=O)(=O)c1ccc(NC2CCCCC2)c(-c2nnn(C3CCCNC3)n2)c1 (centres unmarked) [Compound 74, 4-(cyclohexylamino)-N-methyl-3-(2-(piperidin-3-yl)-2H-tetrazol-5-yl)benzenesulfonamide]"
10,> 3000,"CNS(=O)(=O)c1ccc(NC2CCCCC2)c(-c2cccc(N(C)C)n2)c1 [Compound 83, 4-(cyclohexylamino)-3-(6-(dimethylamino)pyridin-2-yl)-N-methylbenzenesulfonamide]"
11,100 to 1000,"CNS(=O)(=O)c1ccc(Nc2ccc(C(F)(F)F)cc2)c(-c2nnc(N)o2)c1 [Compound 133, 3-(5-amino-1,3,4-oxadiazol-2-yl)-N-methyl-4-[4-(trifluoromethyl)anilino]benzene-sulfonamide]"
12,> 3000,"CNS(=O)(=O)c1ccc(NC2CCCCC2)c(-c2nnn(C3CCCN(c4ccccc4)C3)n2)c1 (centres unmarked) [Compound 63, 4-(cyclohexylamino)-N-methyl-3-(2-(1-phenylpiperidin-3-yl)-2H-tetrazol-5-yl)benzenesulfonamide]"
13,≤ 100,"CNS(=O)(=O)c1ccc(Nc2cccc(C(F)(F)F)c2)c(-c2nnn(C)n2)c1 [Compound 92, N-methyl-3-(2-methyl-2H-tetrazol-5-yl)-4-((3-(trifluoromethyl)phenyl)amino)benzenesulfonamide]"
14,100 to 1000,"CNS(=O)(=O)c1ccc(NC2CCCCC2)c(-c2nnn(C3CCCN(C(=O)OC(C)(C)C)C3)n2)c1 (centres unmarked) [Compound 59, tert-butyl 3-(5-(2-(cyclohexylamino)-5-(N-methylsulfamoyl)phenyl)-2H-tetrazol-2-yl)piperidine-1-carboxylate]"
15,100 to 1000,"CNS(=O)(=O)c1ccc(NC2CCCCC2)c(-c2nnn(C3CN(C(C)=O)C3)n2)c1 [Compound 49, 3-(2-(1-acetylazetidin-3-yl)-2H-tetrazol-5-yl)-4-(cyclohexylamino)-N-methylbenzenesulfonamide]"
16,100 to 1000,"CNS(=O)(=O)c1ccc(NC2CCCCC2)c(-c2cc(N)ccn2)c1 [Compound 84, 3-(4-aminopyridin-2-yl)-4-(cyclohexylamino)-N-methylbenzenesulfonamide]"
17,≤ 100,"CNS(=O)(=O)c1ccc(Nc2ccc(Cl)c(Cl)c2)c(-c2cn(C)cn2)c1 [Compound 140, 4-(3,4-dichloroanilino)-N-methyl-3-(1-methylimidazol-4-yl)benzenesulfonamide]"
18,100 to 1000,"Cn1nnc(-c2cc(S(C)(=O)=O)ccc2NC2CCCCC2)n1 [Compound 5, N-cyclohexyl-2-(2-methyl-2H-tetrazol-5-yl)-4-(methylsulfonyl)aniline]"
19,≤ 100,"CNS(=O)(=O)c1ccc(NC2CCCCC2)c(-c2nnn(CCF)n2)c1 [Compound 40, 4-(cyclohexylamino)-3-(2-(2-fluoroethyl)-2H-tetrazol-5-yl)-N-methylbenzenesulfonamide]"
20,≤ 100,"CNS(=O)(=O)c1ccc(Nc2cc(F)ccc2F)c(-c2nnn(C)n2)c1 [Compound 110, 4-((2,5-difluorophenyl)amino)-N-methyl-3-(2-methyl-2H-tetrazol-5-yl)benzenesulfonamide]"
21,100 to 1000,"CNS(=O)(=O)c1ccc(NC2CCCCC2)c(-c2cccc(N)n2)c1 [Compound 76, 3-(6-aminopyridin-2-yl)-4-(cyclohexylamino)-N-methylbenzenesulfonamide]"
22,> 3000,"CNS(=O)(=O)c1ccc(NC2CCCCC2)c(-n2ccnn2)c1 [Compound 89, 4-(cyclohexylamino)-N-methyl-3-(1H-1,2,3-triazol-1-yl)benzenesulfonamide]"
23,> 3000,"CCn1cncc1-c1cc(S(=O)(=O)NC)ccc1NC1CCCCC1 [Compound 114, 4-(cyclohexylamino)-3-(1-ethyl-1H-imidazol-5-yl)-N-methylbenzenesulfonamide]"
24,≤ 100,"CNS(=O)(=O)c1ccc(Nc2ccc(C(F)(F)F)cc2)c(-c2nnn(CCO)n2)c1 [Compound 116, 3-(2-(2-hydroxyethyl)-2H-tetrazol-5-yl)-N-methyl-4-((4-(trifluoromethyl)phenyl)amino)benzenesulfonamide]"
25,100 to 1000,"CNS(=O)(=O)c1ccc(NC2CCCCC2)c(-c2nnn(C3CN(c4cccnc4)C3)n2)c1 [Compound 70, 4-(cyclohexylamino)-N-methyl-3-(2-(1-(pyridin-3-yl)azetidin-3-yl)-2H-tetrazol-5-yl)benzenesulfonamide]"
26,≤ 100,"CNS(=O)(=O)c1ccc(Nc2cccc(-c3ccccc3)c2)c(-c2nnn(C)n2)c1 [Compound 131, N-methyl-3-(2-methyltetrazol-5-yl)-4-(3-phenylanilino) benzenesulfonamide]"
27,≤ 100,"CNS(=O)(=O)c1ccc(Nc2c(F)cccc2F)c(-c2cn(C)cn2)c1 [Compound 149, 4-((2,6-Difluorophenyl)amino)-N-methyl-3-(1-methyl-1H-imidazol-4-yl)benzenesulfonamide]"
28,100 to 1000,"CNS(=O)(=O)c1ccc(NC2CCCCC2)c(-c2nc(C)no2)c1 [Compound 91, 4-(cyclohexylamino)-N-methyl-3-(3-methyl-1,2,4-oxadiazol-5-yl)benzenesulfonamide]"
29,100 to 1000,"CNS(=O)(=O)c1ccc(NC2CCCCC2)c(-c2nnn(C3CCCN(c4cccnc4)C3)n2)c1 (centres unmarked) [Compound 86, 4-(cyclohexylamino)-N-methyl-3-(2-(1-(pyridin-3-yl)piperidin-3-yl)-2H-tetrazol-5-yl)benzenesulfonamide]"
